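Results reflect a 48-hour exposure of cells in 96-well plates to compound at five concentrations. GI50: concentration for 50% inhibition of growth. TGI marks complete inhibition of growth.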
Assays:
Assay in all cases: DTP human tumour cell line panel, 48 h
[1] = test system: HS 578T breast
[2] = test system: OVCAR-3 ovarian
[3] = test system: U251 CNS
[4] = test system: OVCAR-4 ovarian
[5] = test system: MDA-MB-435
[6] = test system: CAKI-1 renal
[7] = test system: HL-60(TB) leukemia
[8] = test system: PC-3 prostate
[9] = test system: MALME-3M melanoma
[10] = test system: KM12 colon
[11] = test system: MOLT-4 leukemia
[12] = test system: HOP-62 NSCLC
[13] = test system: OVCAR-8 ovarian
[14] = test system: M14 melanoma
[15] = test system: RXF 393 renal
[16] = test system: EKVX NSCLC
[17] = test system: K-562 leukemia
[18] = test system: A549 NSCLC
[19] = test system: NCI-H460 lung
[20] = test system: MCF7 breast
[21] = test system: T-47D breast
[22] = test system: SK-MEL-28 melanoma
[23] = test system: SNB-19 CNS
[24] = test system: MDA-MB-231 breast
[25] = test system: NCI-H522 lung
[26] = test system: SK-MEL-5 melanoma
[27] = test system: HOP-92 NSCLC
[28] = test system: HT29 colon
[29] = test system: SNB-75 CNS
[30] = test system: SK-MEL-2 melanoma
[31] = test system: HCT-15 colon
[32] = test system: SF-295 CNS
[33] = test system: SN12C renal
[34] = test system: A498 renal
[35] = test system: UACC-257 melanoma
[36] = test system: NCI-H23 lung
[37] = test system: SK-OV-3 ovarian
[38] = test system: HCT-116 colon
[39] = test system: UO-31 renal
[40] = test system: IGROV1 ovarian
[41] = test system: RPMI-8226 leukemia
[42] = test system: DU-145 prostate
[43] = test system: SW-620 colon
[44] = test system: TK-10 renal
[45] = test system: SR leukemia
[46] = test system: NCI/ADR-RES ovarian
[47] = test system: SF-268 CNS
[48] = test system: BT-549 breast
[49] = test system: ACHN renal
[50] = test system: NCI-H226 lung
[51] = test system: SF-539 CNS
[52] = test system: LOX IMVI melanoma
[53] = test system: OVCAR-5 ovarian
[54] = test system: COLO 205 colon
[55] = test system: UACC-62 melanoma
[56] = test system: 786-0 renal
[57] = test system: CCRF-CEM leukemia
[58] = test system: HCC-2998 colon

Work on `Cc1cnc2n1S(=O)(=O)c1cc(C(=O)Nc3cccc4nsnc34)c(Cl)cc1S2` yielded a GI50 [1] of 24.5 µM, a TGI [1] of 63.3 µM and a GI50 [2] of 16.2 µM. The TGI [2] was 30.2 µM, the GI50 [3] was 31.6 µM and the TGI [3] was greater than 100 µM. The GI50 [4] was 27.8 µM, the TGI [4] was 75.4 µM and the GI50 [5] was 22.4 µM. It also gave a TGI [5] of 56.5 µM, a GI50 [6] of 16.8 µM and a TGI [6] of 30.9 µM. The GI50 [7] was 24.7 µM, the TGI [7] was greater than 100 µM and the GI50 [8] was 20.1 µM. The TGI [8] was 38.9 µM, the GI50 [9] was 13.9 µM and the TGI [9] was 40.9 µM. The GI50 [10] was 17.6 µM, the TGI [10] was 33.4 µM and the GI50 [11] was 45.1 µM. It also gave a TGI [11] greater than 100 µM, a GI50 [12] of 20.1 µM and a TGI [12] of 35.8 µM. It also gave a GI50 [13] of 33.6 µM, a TGI [13] greater than 100 µM and a GI50 [14] of 52.2 µM. It also gave a TGI [14] greater than 100 µM, a GI50 [15] of 12.9 µM and a TGI [15] of 29.4 µM. The GI50 [16] was 46.8 µM, the TGI [16] was greater than 100 µM and the GI50 [17] was 40.8 µM. The TGI [17] was greater than 100 µM, the GI50 [18] was 46.9 µM and the TGI [18] was greater than 100 µM. For the same compound, the GI50 [19] was 18 µM, the TGI [19] was 37.7 µM and the GI50 [20] was 16.4 µM. For the same compound, the TGI [20] was 32.2 µM, the GI50 [21] was 11.5 µM and the TGI [21] was 31.9 µM. The GI50 [22] was 19.8 µM, the TGI [22] was 42.6 µM and the GI50 [23] was 27.2 µM. It also gave a TGI [23] of 60.8 µM, a GI50 [24] of 12.4 µM and a TGI [24] of 30.3 µM. The GI50 [25] was 47.6 µM, the TGI [25] was greater than 100 µM and the GI50 [26] was 26.4 µM. The TGI [26] was 98.1 µM, the GI50 [27] was 18.3 µM and the TGI [27] was 50.4 µM. For the same compound, the GI50 [28] was 32.3 µM, the TGI [28] was 93.8 µM and the GI50 [29] was 25.6 µM. For the same compound, the TGI [29] was 62.3 µM, the GI50 [30] was 44.2 µM and the TGI [30] was greater than 100 µM. For the same compound, the GI50 [31] was 38.1 µM, the TGI [31] was greater than 100 µM and the GI50 [32] was 22.8 µM. For the same compound, the TGI [32] was 49.3 µM, the GI50 [33] was 25.3 µM and the TGI [33] was 58.5 µM. For the same compound, the GI50 [34] was 13.8 µM, the TGI [34] was 34.8 µM and the GI50 [35] was 19.1 µM. It also gave a TGI [35] of 38.3 µM, a GI50 [36] of 18 µM and a TGI [36] of 32.8 µM. It also gave a GI50 [37] greater than 100 µM, a TGI [37] greater than 100 µM and a GI50 [38] of 20.1 µM. It also gave a TGI [38] of 35.6 µM, a GI50 [39] of 22.9 µM and a TGI [39] of 51.8 µM. It also gave a GI50 [40] of 31.2 µM, a TGI [40] greater than 100 µM and a GI50 [41] of 17.4 µM. The TGI [41] was 39.7 µM, the GI50 [42] was 25.5 µM and the TGI [42] was 67.9 µM. The GI50 [43] was 19.1 µM, the TGI [43] was 37.2 µM and the GI50 [44] was 19.8 µM. The TGI [44] was 40 µM, the GI50 [45] was 29.1 µM and the TGI [45] was greater than 100 µM. The GI50 [46] was 16.2 µM, the TGI [46] was 34.1 µM and the GI50 [47] was 22.5 µM. For the same compound, the TGI [47] was 55.6 µM, the GI50 [48] was greater than 100 µM and the TGI [48] was greater than 100 µM. For the same compound, the GI50 [49] was 27.8 µM, the TGI [49] was 85.5 µM and the GI50 [50] was 17.3 µM. It also gave a TGI [50] of 34.2 µM, a GI50 [51] of 23.4 µM and a TGI [51] of 50.2 µM. The GI50 [52] was 32.9 µM, the TGI [52] was greater than 100 µM and the GI50 [53] was 54 µM. For the same compound, the TGI [53] was greater than 100 µM, the GI50 [54] was 23 µM and the TGI [54] was 54.6 µM. It also gave a GI50 [55] of 17.1 µM, a TGI [55] of 32.9 µM and a GI50 [56] greater than 100 µM. It also gave a TGI [56] greater than 100 µM.

Work on `Cc1cc2nc(NCCN)n(Cc3ccc(F)c(Cl)c3)c2cc1C` yielded a GI50 [1] of 11.8 µM, a TGI [1] of 28.2 µM and a GI50 [2] of 12.8 µM. It also gave a TGI [2] of 27 µM, a GI50 [3] of 12.3 µM and a TGI [3] of 25.1 µM. The GI50 [4] was 14 µM, the TGI [4] was 28.3 µM and the GI50 [5] was 3.68 µM. It also gave a TGI [5] of 14 µM, a GI50 [6] of 12.7 µM and a TGI [6] of 25.4 µM. It also gave a GI50 [7] of 2.83 µM, a TGI [7] of 11.7 µM and a GI50 [8] of 10 µM. The TGI [8] was 22.4 µM, the GI50 [9] was 1.83 µM and the TGI [9] was 4.19 µM. For the same compound, the GI50 [10] was 5.28 µM, the TGI [10] was 18.6 µM and the GI50 [11] was 6.42 µM. The TGI [11] was 22.1 µM, the GI50 [12] was 14.2 µM and the TGI [12] was 28.5 µM. The GI50 [13] was 17 µM, the TGI [13] was 33.1 µM and the GI50 [14] was 2.52 µM. It also gave a TGI [14] of 7.07 µM, a GI50 [16] of 13.8 µM and a TGI [16] of 28.4 µM. It also gave a GI50 [17] of 2.57 µM, a TGI [17] of 6.97 µM and a GI50 [18] of 17.8 µM. For the same compound, the TGI [18] was 32.2 µM, the GI50 [19] was 3.2 µM and the TGI [19] was 10.4 µM. It also gave a GI50 [20] of 11.7 µM, a TGI [20] of 27.1 µM and a GI50 [21] of 6.16 µM. The TGI [21] was 21.7 µM, the GI50 [57] was 12.7 µM and the TGI [57] was 29.3 µM. It also gave a GI50 [22] of 2.47 µM, a TGI [22] of 6.63 µM and a GI50 [23] of 13.6 µM. For the same compound, the TGI [23] was 28.6 µM, the GI50 [24] was 2.68 µM and the TGI [24] was 9.44 µM. It also gave a GI50 [25] of 19.5 µM, a TGI [25] of 35.1 µM and a GI50 [26] of 14.4 µM. It also gave a TGI [26] of 27.6 µM, a GI50 [27] of 2.35 µM and a TGI [27] of 14.3 µM. The GI50 [28] was 11.7 µM, the TGI [28] was 24.5 µM and the GI50 [29] was 10.6 µM. It also gave a TGI [29] of 23.4 µM, a GI50 [30] of 19.1 µM and a TGI [30] of 34 µM. The GI50 [31] was 5.74 µM, the TGI [31] was 19.1 µM and the GI50 [32] was 12.8 µM. The TGI [32] was 26.1 µM, the GI50 [58] was 1.82 µM and the TGI [58] was 3.65 µM. For the same compound, the GI50 [33] was 15.1 µM, the TGI [33] was 29.8 µM and the GI50 [36] was 14.5 µM. It also gave a TGI [36] of 29.2 µM, a GI50 [37] of 16.9 µM and a TGI [37] of 30.8 µM. For the same compound, the GI50 [38] was 2.29 µM, the TGI [38] was 4.7 µM and the GI50 [39] was 10.7 µM. The TGI [39] was 24 µM, the GI50 [40] was 11.7 µM and the TGI [40] was 27.5 µM. The GI50 [41] was 3.95 µM, the TGI [41] was 15.1 µM and the GI50 [42] was 14.1 µM. For the same compound, the TGI [42] was 27.4 µM, the GI50 [43] was 3.31 µM and the TGI [43] was 10.8 µM. It also gave a GI50 [44] of 16.9 µM, a TGI [44] of 31.2 µM and a GI50 [45] of 2.03 µM. For the same compound, the TGI [45] was 6.04 µM, the GI50 [46] was 16.3 µM and the TGI [46] was 32.1 µM. It also gave a GI50 [47] of 11.6 µM, a TGI [47] of 26 µM and a GI50 [48] of 14.8 µM. It also gave a TGI [48] of 30.2 µM, a GI50 [49] of 11.2 µM and a TGI [49] of 24.7 µM. It also gave a GI50 [50] of 19.8 µM, a TGI [50] of 39.7 µM and a GI50 [51] of 11.7 µM. For the same compound, the TGI [51] was 26 µM, the GI50 [52] was 3.73 µM and the TGI [52] was 14.5 µM. The GI50 [53] was 13.7 µM, the TGI [53] was 28.3 µM and the GI50 [54] was 1.68 µM. The TGI [54] was 3.38 µM, the GI50 [55] was 13.3 µM and the TGI [55] was 27.2 µM. For the same compound, the GI50 [56] was 10.2 µM and the TGI [56] was 23.3 µM.
